According to patent publication US9517230B2, “Small molecule RNase inhibitors and methods of use” (UNIVERSITY OF ROCHESTER, priority 2011, dated 2016):
Entries after “also recorded” stand apart in the source; their conditions may differ.

Columns and labels:
S. aureus RnpA = target: T1, S. aureus RnpA (Staphylococcus aureus, UniProt P0A0H5); assay: RnpA-mediated RNA (spa mRNA) degradation inhibitory titration assay; type: biochemical; details: for IC50: 1 pmol spa mRNA, 20 pmol RnpA, one hour at 37° C., agarose gel, read-out: apparent IC50
T1 construct: hexahistidine-tag (pET-30 Ek/LIC leader) (N); made in house; host or cells: E. coli BL21 (DE3)
T1 sequence (P0A0H5 1-117): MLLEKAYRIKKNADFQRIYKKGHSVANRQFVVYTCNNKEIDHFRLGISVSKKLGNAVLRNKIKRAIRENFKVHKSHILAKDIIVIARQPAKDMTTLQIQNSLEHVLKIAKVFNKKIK
Experimental: Specifically, members of the ActiProbe-25K and Natural Product libraries (29,940 compounds total; TimTec Inc.; Newark, Del.) were screened for small molecule inhibitors of S. aureus RnpA mediated total bacterial RNA degradation. All reactions (50 μl) were performed in 96-well format and contained 20 pmol RnpA, 200 ng S. aureus total RNA, and ˜5 μM of each compound in 1× reaction buffer (2 mM NaCl, 2 mM MgCl2, 50 mM Tris-HCl, pH 6.0). Mixtures were incubated at 37° C. for 20 min at which time Quant-iT RiboGreen® (100 μl; Invitrogen) was added to quantify the amount of RNA substrate remaining. Percent enzyme inhibition was calculated as remaining substrate/starting substrate*100. For inhibitory titration assays, 1 pmol of spa mRNA was incubated with 20 pmol RnpA alone (positive control) or in the presence of one of four compounds for one hour at 37° C. […] Following this, 20 μl of each reaction mixture were subjected to electrophoresis in a 1.2% formaldehyde-containing agarose gel and visualized by ethidium bromide staining.

MRSA = assay: Antimicrobial susceptibility testing, broth microdilution (CLSI); type: cell-based, Staphylococcus aureus; details: 18 hr at 37° C.
Source text: In some examples, compounds can be further assayed using the Mueller Hinton (MH) broth antibacterial assay as specified by the Clinical and Laboratory Standards Institute MIC broth microdilution protocol (see Methods for Dilution Antimicrobial Susceptibility Tests for Bacteria That Grow Aerobically; Approved Standard, In The Clinical and Laboratory Standards Institute (CLSI, formerly NCCLS), 7th ed., January 2006, 26 (2), M7-A7; see also Performance Standards for Antimicrobial Susceptibility Testing; Eighteenth Informational Supplement, In The Clinical and Laboratory Standards Institute (CLSI, formerly NCCLS), January 2008, 28 (1), M100-S18).
Microtiter plates containing serial dilutions of the compounds 1000 (0, 4, 8, 16, 32, 64, and 128 μg/ml) were inoculated with 10^5 colony forming units (CFU)/ml and incubated for 18 hr at 37° C.

HepG2 human hepatocytes = assay: HepG2 MTT cytotoxicity assay; type: cell-based; details: 1×, 2×, 4× the MIC value for 48 hours
Experimental: It was then assessed whether RnpA-inhibitory agent concentrations corresponding to the effective bacterial MIC values (10-50 μg/ml) elicited human cell cytotoxicity. HepG2 human hepatocytes (10^5 cells) were seeded in individual wells of a microtitre plate and incubated for 16 hr at 37° C. with 5% carbon dioxide in Dulbecco's Modified Eagle Media supplemented with 10% fetal bovine serum. Cells were then challenged with Mitomycin C (5 or 10 μg/ml; positive control) or 1, 2, or 4 times (1×, 2×, 4×) the MIC value of the indicated RnpA inhibitory compound for 48 hours. Cell viability was measured spectrophotometrically (570 nm) following the addition and subsequent reduction of tetrazolium salt (MTT) within metabolically active cells, as per the manufacturer's recommendations (American Type Culture Collection; Manassas, Va.).

| Compound | inhibition of RnpA-mediated RNA degradation (in words) (S. aureus RnpA) | IC50 (S. aureus RnpA) | antimicrobial activity against MRSA (in words) (MRSA) | human cell cytotoxicity / cell survival (in words) (HepG2 human hepatocytes) | human cell cytotoxicity / cell survival (in words) (HepG2 human hepatocytes; listed as ST003531) | human cell cytotoxicity / cell survival (in words) (HepG2 human hepatocytes; listed as ST006630) |
| --- | --- | --- | --- | --- | --- | --- |
| CC(C)c1ccc(OCC(=O)NNC(=S)NC(=O)c2ccco2)cc1 [RNPA-2000] | inhibit RnpA-mediated RNA degradation; also recorded: excellent RnpA-inhibitory activity | 15 to 20 µM | moderate antimicrobial activity; also recorded: good antistaphylococcal activity | do not cause human cytotoxicity | did not affect human cell survival | – |
| O=C(O)CCN1C(=O)/C(=C\c2ccc(-c3ccc(Cl)cc3)o2)SC1=S [RNPA-3000] | inhibit RnpA-mediated RNA degradation; also recorded: excellent RnpA-inhibitory activity | 12.5 to 20 µM | moderate antimicrobial activity; also recorded: good antistaphylococcal activity | do not cause human cytotoxicity | – | did not affect human cell survival |
